From the supplement of paper PMC10307832

How the values were obtained:
Assay in all cases: relative viability (nuclei count vs DMSO), 5 days (fraction); higher = more cells survive
[1] = compound: CC(=O)c1c(C)c2cnc(Nc3ccc(N4CCNCC4)cn3)nc2n(C2CCCC2)c1=O [Palbociclib] + CC(C)C[C@H](NC(=O)[C@H](Cc1ccccc1)NC(=O)c1cnccn1)B(O)O [Bortezomib] (partner 0.002 µM)
Summary of the method: (§1)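 Lung cancer cell lines in 1536-well plates were dosed by pin tool the day after seeding, either with one drug alone or with a fixed anchor-drug dose plus five library-drug doses (not always all listed) in √10 steps. After 5 days, cells were fixed and their nuclei stained in one step (final 0.05% Triton X-100, 1% formaldehyde, 1 ug/ml Hoechst), then counted on 4× images. Relative viability is the nuclei count in treated wells divided by that in vehicle wells. Values are medians of duplicate plates.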

[2] = compound: CC(=O)c1c(C)c2cnc(Nc3ccc(N4CCNCC4)cn3)nc2n(C2CCCC2)c1=O [Palbociclib] + CC1(C)CCC(c2ccc(Cl)cc2)=C(CN2CCN(c3ccc(C(=O)NS(=O)(=O)c4ccc(N[C@H](CCN5CCOCC5)CSc5ccccc5)c(S(=O)(=O)C(F)(F)F)c4)cc3)CC2)C1 [Navitoclax] (partner 0.5 µM)
Summary of the method: as §1

[3] = compound: CC(=O)c1c(C)c2cnc(Nc3ccc(N4CCNCC4)cn3)nc2n(C2CCCC2)c1=O [Palbociclib] + C[C@]1(O)C[C@@H](c2nc(-c3ccc4ccc(-c5ccccc5)nc4c3)c3c(N)nccn32)C1 [Linsitinib] (partner 1 µM)
Summary of the method: as §1

[4] = compound: CC(=O)c1c(C)c2cnc(Nc3ccc(N4CCNCC4)cn3)nc2n(C2CCCC2)c1=O [Palbociclib] + NC(=O)Nc1cc(-c2cccc(F)c2)sc1C(=O)N[C@H]1CCCNC1 [AZD7762] (partner 0.2 µM)
Summary of the method: as §1

Cell Line	relative viability ([1]; first compound 0.01 µM)	relative viability ([1]; first compound 0.03162 µM)	relative viability ([1]; first compound 0.1 µM)	relative viability ([1]; first compound 0.3162 µM)	relative viability ([1]; first compound 1 µM)	relative viability ([2]; first compound 0.01 µM)	relative viability ([2]; first compound 0.03162 µM)	relative viability ([2]; first compound 0.1 µM)	relative viability ([2]; first compound 0.3162 µM)	relative viability ([2]; first compound 1 µM)	relative viability ([3]; first compound 0.01 µM)	relative viability ([3]; first compound 0.03162 µM)	relative viability ([3]; first compound 0.1 µM)	relative viability ([3]; first compound 0.3162 µM)	relative viability ([3]; first compound 1 µM)	relative viability ([4]; first compound 0.01 µM)	relative viability ([4]; first compound 0.03162 µM)	relative viability ([4]; first compound 0.1 µM)	relative viability ([4]; first compound 0.3162 µM)	relative viability ([4]; first compound 1 µM)
PC-3 [JPC-3]	0.776	0.701	0.706	0.665	0.545	0.769	0.778	0.66	0.721	0.635	0.981	0.888	0.878	0.787	0.613	0.794	0.814	0.619	0.592	0.41
NCI-H2405	0.973	0.769	0.847	1.01	0.597	0.866		0.574	0.729	0.722	0.992		0.49	0.808	0.54	0.666	0.78	0.726	0.62	0.383
EPLC-272H	0.836		0.792	0.883	0.512	1.21		1.06	1.06	0.833	1.15		0.988	0.999	0.716	0.306		0.383	0.251	0.274
EMC-BAC-2	1.09	0.812	0.905	0.785	0.665	1.16	1.07	1.06	0.953	0.731	0.815	0.709	0.712	0.651	0.594	1.13	0.935	0.955	1.02	0.713
NCI-H3122	1.04	1.02	0.919	0.745	0.513	0.941	0.982	0.921	0.757	0.618	0.925	1.02	0.943	0.809	0.63	0.927	0.82	0.897	0.715	0.347
201T	1.16	0.954	1.04	0.946	0.709	1.22	1.2	1.08	1.08	1.01	1.01	0.97	0.901	0.938	0.716	0.573	0.475	0.905	0.751	0.633
NCI-H1734	0.896	0.532	0.661	0.619	0.409	0.928	0.779	0.708	0.593	0.487	0.918	0.765	0.789	0.641	0.564	0.53	0.417	0.454	0.453	0.356
HCC-78	0.385	0.451	0.366	0.454	0.406	0.812	0.473	0.382	0.447	0.201	0.46	0.329	0.302	0.39	0.273	0.731	0.623	0.67	0.525	0.685
EKVX	1.12	0.916	1.04	0.989	0.461	1.11	0.826	0.755	0.764	0.476	1.01	0.786	0.722	0.781	0.492	0.7		0.673	0.558	0.38
BEN	0.94	0.728	0.849	0.674	0.353	0.0758	0.0563	0.0761	0.0645	0.0615	1.14	0.759	0.618	0.747	0.497	0.826	0.604	0.583	0.567	0.388
HARA	1.07	1.02	1	0.874	0.389	1.15	1.11	0.997	0.91	0.662	1.02	0.78	0.83	0.454	0.361	0.379	0.137	0.244	0.364	0.242
HCC-15	1.1		0.929	0.833	0.737	0.672		0.622	0.641	0.529	0.966		0.832	0.755	0.726	1.27		1.03	1.13	0.866
NCI-H1975	0.356	0.356	0.349	0.406	0.366	1.2	1.02	1.08	0.918	0.877	0.956	0.864	0.886	0.766	0.716	0.715	0.772	0.609	0.659	0.531
NCI-H2126	1.1	0.91	0.925	0.801	0.599	0.861	0.848	0.743	0.745	0.561	0.736	0.706	0.693	0.598	0.428	0.937	0.848	0.8	0.732	0.584
LXF-289	0.997	0.933	0.971	0.852	0.677	0.94	0.94	0.937	0.83	0.772	0.914	0.959	0.99	0.88	0.734	1.03	0.692	1.06	0.96	0.779
NCI-H1651	1	0.9	0.981	0.915	0.8	1.13	0.986	0.907	0.992	0.736	0.972	0.913	1.01	0.933	0.698	0.484	0.394	0.474	0.464	0.425
NCI-H1993	1.23	0.905	0.969	0.763	0.814	0.84	0.875	0.752	0.771	0.706	0.706	0.722	0.648	0.693	0.676	0.748	0.646	0.575	0.632	0.528
